These results are taken from US20130331389A1, “Methods and Compositions for Cardiomyocyte Replenishment by Endogenous and Progenitor Stem Cells” (NATIONAL CHENG KUNG UNIVERSITY, priority 2012, published 2013).

Common to all, as to assay type: in vivo, mouse
The subject of one assay is B220. The assay can be described thus: Quantitative RT-PCR of B cell marker B220 in infarct region. As to conditions: both young and old mice; day 3 post-infarction. The protocol: (§1) To induce Cre recombination to achieve GFP labeling of cardiomyocytes, tamoxifen (Sigma) was dissolved in sunflower oil (Sigma) at a concentration of 5 mg/ml. The tamoxifen solution was injected intraperitoneally into M/Z mice daily at a dosage of 40 μg per 1 g body weight for 14 days, and the same dosage was injected twice daily for short-term labeling using methods known in the art (Laugwitz, K.-L. et al. Nature 433, 647-653 (2005)). All experimental conditions were optimized prior to the PGE2, indomethacin and TGF-β Type I Receptor Kinase Inhibitor II (ALK5 Inhibitor II, ALK5i, Merck) treatments. The mice treated with PGE2 or PGI2 (Vegiopoulos, A. et al. Science 328, 1158-1161 (2010)) (both from Sigma) were injected intraperitoneally with 3.33 ng of drug per 1 g of body weight dissolved in absolute ethanol twice daily. […]
(§2) The total RNA isolated from the ischemic region or remote area of MI hearts was reverse transcribed using the SuperScript III (Invitrogen) system according to the manufacturer's protocol. For quantitative PCR, the SYBR Green reagent (Maestrogen) was used according to the manufacturer's protocol. The analysis of relative gene expression was performed using the 2̂[−delta delta Ct] method and sequence-specific primers designed for semi-quantitative PCR and real-time RT-PCR (FIG. 11).

A further assay relates to EP2. The assay can be described thus: Quantitative RT-PCR of PGE2 receptors at infarct region of MI heart. The protocol: as §1, §2
A further assay has as its system CD11b. The experiment in a line: Quantitative RT-PCR of myeloid cell marker CD11b in infarct region. Conditions: both young and old mice; day 3 post-infarction. The protocol:
as §1, §2

The subject of the next assay is Nkx2.5. The experiment in a line: Quantitative RT-PCR of Nkx2.5 in MI heart and in isolated cardiac Sca-1+ cells. As for the experimental part:
as §1
The total RNA isolated from the ischemic region or remote area of MI hearts was reverse transcribed using the SuperScript III (Invitrogen) system according to the manufacturer's protocol. For quantitative PCR, the SYBR Green reagent (Maestrogen) was used according to the manufacturer's protocol. The analysis of relative gene expression was performed using the 2̂[−delta delta Ct] method and sequence-specific primers designed for semi-quantitative PCR and real-time RT-PCR (FIG. 11). […]

The subject of another assay is MerCreMer/ZEG (M/Z) mice. The experiment in a line: Echocardiography after myocardial infarction (ejection fraction). As to conditions: echocardiography at one and two months post-infarction. The protocol:
M/Z mice were subjected to experimental myocardial infarction (MI) one month after the last tamoxifen injection. MI was generated by ligating the left anterior descending coronary artery at 2-3 mm distal to the left atrial appendage. For cell transplantation experiments, intramyocardial injections were performed immediately after coronary ligation. A total of 6×10^5 cardiac Sca-1^+ cells were injected per mouse in two divided injections (5 μl/injection). For BrdU labeling, the mice were subcutaneously implanted with osmotic minipump (Alzet) at the time of surgery and 40 μg/μl of BrdU (Sigma) was administrated. For immunohistological studies, mice were sacrificed and the hearts were harvested at different time points following experimental MI surgery. Cardiac performances were assessed by echocardiography at 28 and 56 days after operation using Vevo 770 (Visualsonics, Toronto, Canada).
To induce Cre recombination to achieve GFP labeling of cardiomyocytes, tamoxifen (Sigma) was dissolved in sunflower oil (Sigma) at a concentration of 5 mg/ml. The tamoxifen solution was injected intraperitoneally into M/Z mice daily at a dosage of 40 μg per 1 g body weight for 14 days, and the same dosage was injected twice daily for short-term labeling using methods known in the art (Laugwitz, K.-L. et al. Nature 433, 647-653 (2005)). […]

In a further assay the test system is Sca-1. The assay can be described thus: Quantitative RT-PCR of Sca-1 in infarct zone of MI heart. As to conditions: day 3 post-MI. The protocol: To induce Cre recombination to achieve GFP labeling of cardiomyocytes, tamoxifen (Sigma) was dissolved in sunflower oil (Sigma) at a concentration of 5 mg/ml. The tamoxifen solution was injected intraperitoneally into M/Z mice daily at a dosage of 40 μg per 1 g body weight for 14 days, and the same dosage was injected twice daily for short-term labeling using methods known in the art (Laugwitz, K.-L. et al. Nature 433, 647-653 (2005)). All experimental conditions were optimized prior to the PGE2, indomethacin and TGF-β Type I Receptor Kinase Inhibitor II (ALK5 Inhibitor II, ALK5i, Merck) treatments. The mice treated with PGE2 or PGI2 (Vegiopoulos, A. et al. Science 328, 1158-1161 (2010)) (both from Sigma) were injected intraperitoneally with 3.33 ng of drug per 1 g of body weight dissolved in absolute ethanol twice daily. For the indomethacin treatment, mice were fed with water containing indomethacin (Sigma, 15 μg/ml) for different periods of time. The indomethacin-containing water was changed every 3 days. The mice subjected to the celecoxib (Lyons, T. R. et al. Nat. Med. 17, 1109-1115 (2011)) (Sigma) treatment were injected intraperitoneally with 5 μg of drug per 1 g of body weight daily. For ALK5i treatment, aged mice were injected intraperitoneally once per day with 1 μg of drug per 1 g of body weight one day before surgery and continuously until day 10 post-MI. Celecoxib and ALK5i were dissolved in ethanol and DMSO, respectively.
as §2

Regarding `CCCCC[C@H](O)/C=C/C1C(O)CC(=O)C1C/C=C\CCCC(=O)O` (stereo partly drawn) [PGE2, (5Z,11α,13E,15S)-7-[3-hydroxy-2-(3-hydroxyoct-1-enyl)-5-oxo-cyclopentyl]hept-5-enoic acid], in the assay on B220, the B220 level entry was “reduced”. Besides, the “expression of PGE2 receptor EP2 in hearts after MI” value with EP2 is “significantly induced”. Besides, the CD11b level entry with CD11b was “induced”. Moreover, the “expression of Nkx2.5 in Sca-1+ cells” value with Nkx2.5 (cardiac Sca-1+ cells isolated on day 3 after injury) was “elevated”. Moreover, the “expression of Nkx2.5 in the MI heart” value in the assay on Nkx2.5 (young mice, fold change normalized to sham) is recorded as “enhances”. In addition, in the assay on MerCreMer/ZEG (M/Z) mice, the “cardiac function post-MI” value is given as “improved”. Besides, the Sca-1 expression result in the assay with Sca-1 (aged animals) was “restored Sca-1 expression to levels similar to those in young mice”; with Sca-1 (young mice) it was “further increased”.
